Marks after values point to notes of the source that are not given here.
Tests used:
Type in all cases: cell-based, human
[1] = test system: AChEmRNA transcripts (S, E, R); test: In situ hybridization of AChEmRNA transcripts in cultured CD34+ cells, confocal quantification; settings: 24 hr
Experimental: In Situ Hybridization: In situ hybridization procedures, were performed on cultured cells and human fetal tissues, as detailed elsewhere [Grisaru et al. (1999b) id ibid; Kaufer et al. (1998) id ibid.]. Cultured cells were centrifuged at 300× g and fixed, using 4% paraformaldehyde, to collagen-coated cover slips placed on the bottom of the culture well. […] 5′-Biotinylated, 2′-O-methylated AChEcRNA probes complementary to 3′-alternative human ACHE exons were employed. Detection and quantification of the various AChEmRNA transcripts in fetal tissues were performed as previously described [Grisaru et al. (1999b) id ibid.]. Confocal microscopy scans of the culture-derived cells were obtained using a MRC-1024 Bio-Rad confocal microscope (Hemel Hempsted Herts., UK). A projection was built from each cell image and specific criteria were set for size and intensity of the Fagt Red fluorescence. […]
The assumption that hematopoietic ACHE gene expression is modulated under stress was tested in CD34^+ cells cultured for 24 hr with increasing doses of hydrocortisone. Treated cells were subjected to cytochemical staining for AChE activity as well as to high resolution in situ hybridization followed by confocal microscopic quantification of labeling density. […] Because each cRNA probe has its own characteristic hybridization affinity, each transcript was quantified separately. […]

CD34^+ cells [2] = test: Cell phenotyping of CD34+ liquid cultures by flow cytometry (CD34, CD33, CD15, CD41)
From the text: Cell Source: UCB was collected, following informed consent of the parents and with the approval of the Sourasky Medical Center Ethics Committee, as previously described [Grisaru et al. (1999a) Am. J. Obstet. Gynecol, 180, 1240–1243]. Following 1:1 (v/v) dilution in Iscove's modified Dulbecco medium (IMDM, Beit Haemek, Israel), mononuclear cells were separated using 3% gelatin (Difco, Detroit, Mich.) and Ficoll-Hypaque gradients (<1.077 g/ml; Pharmacia, Uppsala, Sweden) [Pick et al. (1998) Br. J. Haematol. 103, 639–50]. CD34^+ cells were enriched using CD34 immunoglobulin-coated magnetic beads (CD34 progenitor cell selection system, Dynal, Norway).CD34^+ cells analysis was performed by flow cytometry (Becton Dickinson Immunocytochemistry System Inc., San Jose, Calif.), using CD34-PE (Becton Dickinson Immunocytometry System, Inc.) and CD45-FITC (Dako, Glostrup, Denmark) monoclonal antibodies. […] Liquid Cultures: UCB CD34^+ cells were set for liquid cultures at a concentration of 10^5/mL in IMDM, containing 10% autologous plasma, 2 mM L-glutamine (Sigma Chemical Co., St Louis, Mo.), penicillin ([…]), streptomycin ([…]), amphotericin B (2×10^−5 M) (Sigma Chemical Co.), and heparin (20 IU/mL, Gibco, Grand Island, N.Y.), all in a fully humidified atmosphere at 37° C. and 5% CO2. The following elements were added where noted: • 1. […] Endothlial Growth factors: Epidermal growth factor (EGF 10 ng/ml, Sigma Chemical Co.), basic Fibroblast growth factor (bFGF 20 ng/ml, Sigma Chemical Co.) incubated in a serum free medium (SFM) for 48 hr. • 3. Stress mimicking conditions: Hydrocortisone sodium succinate (Abic Ltd., Netanya, Israel) at concentrations equivalent to normal, intermediate and stress serum cortisol levels (0.1, 0.6 and 1.2 μM, respectively (De Vroede et al., Arch. Des. […] Antisense oligonucleotides: 3′-terminal 2′-O-Methylated 15- and 20-mer oligodeoxynucleotides in the antisense (AS) orientation, targeted against the common sequence domain in human AChEmRNA and BuChE mRNA, as control, […], as detailed elsewhere [Grisaru et al. (1999b) Mol. Cell. Biol. 19, 788–95]. • 5. AChE C-terminal peptides: The following C-terminal peptides of the AChE synaptic (ASP, also denoted SEQ ID: No. 2) and readthrough (ARP, also denoted SEQ ID: No. 1) isoforms were synthesized using a 433A peptide synthesizer (PE Applied Biosystems, Inc., Norwalk, Conn.). • ASP: 1-[…]-40, also denoted as SEQ ID: No. 2. • ARP: 1-[…]-26, also denoted as SEQ ID: No. 1.
(§1) Culture Analyses: Twenty-four hr liquid cultures served for cytochemical staining, in situ hybridization, and cell proliferation assay by 5-bromo-2′-deoxy-Uridine (BrdU) incorporation [Grisaru et al. (1999b) id ibid.]. Twenty-eight day liquid cultures were sampled every 6–8 days for viable cell counting (using trypan blue dye exclusion), cell phenotyping (CD34^+, CD33^+ and CD41^+ quantification using flow cytometry, with CD34-PE, CD33-FITC (Immunotech/Coulter, Hialeah, Fla.), CD41-FITC (Immunoquality Products, Groningen, Netherlands) and CD45-FITC monoclonal antibodies), and growth of progenitor colony (granulocyte-macrophage and megakaryocytic), using previously described techniques (Pick et al. (1998) id ibid.). […] 11, 1049–57]. Nuclear staining w with 4′,6-diamidino-2- phenylindole [DAPI, see e.g., Peterson et al. (1999) Genetics 152, 427–439].

CD34^+ cells [3] = test: Viable cell expansion in CD34+ liquid cultures (trypan blue exclusion); settings: day 14; seeded at 50,000 cells/well; ARP 2 nM, cortisol 1.2 μM, ASP 2 nM, SCF 50 ng/ml, AS1 20 pM, PBAN 2 nM
From the text: Cell Source: UCB was collected, following informed consent of the parents and with the approval of the Sourasky Medical Center Ethics Committee, as previously described [Grisaru et al. (1999a) Am. J. Obstet. Gynecol, 180, 1240–1243]. Following 1:1 (v/v) dilution in Iscove's modified Dulbecco medium (IMDM, Beit Haemek, Israel), mononuclear cells were separated using 3% gelatin (Difco, Detroit, Mich.) and Ficoll-Hypaque gradients (<1.077 g/ml; Pharmacia, Uppsala, Sweden) [Pick et al. (1998) Br. J. Haematol. 103, 639–50]. CD34^+ cells were enriched using CD34 immunoglobulin-coated magnetic beads (CD34 progenitor cell selection system, Dynal, Norway).CD34^+ cells analysis was performed by flow cytometry (Becton Dickinson Immunocytochemistry System Inc., San Jose, Calif.), using CD34-PE (Becton Dickinson Immunocytometry System, Inc.) and CD45-FITC (Dako, Glostrup, Denmark) monoclonal antibodies. […] Liquid Cultures: UCB CD34^+ cells were set for liquid cultures at a concentration of 10^5/mL in IMDM, containing 10% autologous plasma, 2 mM L-glutamine (Sigma Chemical Co., St Louis, Mo.), penicillin ([…]), streptomycin ([…]), amphotericin B (2×10^−5 M) (Sigma Chemical Co.), and heparin (20 IU/mL, Gibco, Grand Island, N.Y.), all in a fully humidified atmosphere at 37° C. and 5% CO2. The following elements were added where noted: • 1. Hematopoietic growth factors: Interleukin 3 (IL3, 5 ng/mL, Immunex, Seattle, Wash.), interleukin 6 (IL6, 50 ng/mL, R&D Systems, Minneapolis, Minn.), TPO (1 ng/mL, R&D Systems), stem cell factor (SCF, 10 ng/mL, R&D Systems), FLT-3 ligand (FLT3, 50 ng/mL, R&D Systems), granulocyte-macrophage colony stimulating factor (GM-CSF, 50 ng/mL, Biogenesis Ltd, Bournemouth, UK) and combinations of the above, for 24 hr to 28 days (supplemented every 4 days). • 2. Endothlial Growth factors: Epidermal growth factor (EGF 10 ng/ml, Sigma Chemical Co.), basic Fibroblast growth factor (bFGF 20 ng/ml, Sigma Chemical Co.) incubated in a serum free medium (SFM) for 48 hr. • 3. […] AChE C-terminal peptides: The following C-terminal peptides of the AChE synaptic (ASP, also denoted SEQ ID: No. 2) and readthrough (ARP, also denoted SEQ ID: No. 1) isoforms were synthesized using a 433A peptide synthesizer (PE Applied Biosystems, Inc., Norwalk, Conn.). • ASP: 1-[…]-40, also denoted as SEQ ID: No. 2. • ARP: 1-[…]-26, also denoted as SEQ ID: No. 1. […]

AChE = test: Cytochemical staining of AChE catalytic activity in CD34+ cells; settings: 24 hr
From the text: as §1

CD34^+ cells [4] = test: BrdU incorporation into CD34+ cells (cell proliferation); settings: GM-CSF alone, 16 hr
From the text: Cell Source: UCB was collected, following informed consent of the parents and with the approval of the Sourasky Medical Center Ethics Committee, as previously described [Grisaru et al. (1999a) Am. J. Obstet. Gynecol, 180, 1240–1243]. Following 1:1 (v/v) dilution in Iscove's modified Dulbecco medium (IMDM, Beit Haemek, Israel), mononuclear cells were separated using 3% gelatin (Difco, Detroit, Mich.) and Ficoll-Hypaque gradients (<1.077 g/ml; Pharmacia, Uppsala, Sweden) [Pick et al. (1998) Br. J. Haematol. 103, 639–50]. CD34^+ cells were enriched using CD34 immunoglobulin-coated magnetic beads (CD34 progenitor cell selection system, Dynal, Norway).CD34^+ cells analysis was performed by flow cytometry (Becton Dickinson Immunocytochemistry System Inc., San Jose, Calif.), using CD34-PE (Becton Dickinson Immunocytometry System, Inc.) and CD45-FITC (Dako, Glostrup, Denmark) monoclonal antibodies. […] Liquid Cultures: UCB CD34^+ cells were set for liquid cultures at a concentration of 10^5/mL in IMDM, containing 10% autologous plasma, 2 mM L-glutamine (Sigma Chemical Co., St Louis, Mo.), penicillin ([…]), streptomycin ([…]), amphotericin B (2×10^−5 M) (Sigma Chemical Co.), and heparin (20 IU/mL, Gibco, Grand Island, N.Y.), all in a fully humidified atmosphere at 37° C. and 5% CO2. The following elements were added where noted: • 1. Hematopoietic growth factors: Interleukin 3 (IL3, 5 ng/mL, Immunex, Seattle, Wash.), interleukin 6 (IL6, 50 ng/mL, R&D Systems, Minneapolis, Minn.), TPO (1 ng/mL, R&D Systems), stem cell factor (SCF, 10 ng/mL, R&D Systems), FLT-3 ligand (FLT3, 50 ng/mL, R&D Systems), granulocyte-macrophage colony stimulating factor (GM-CSF, 50 ng/mL, Biogenesis Ltd, Bournemouth, UK) and combinations of the above, for 24 hr to 28 days (supplemented every 4 days). • 2. […] AChE C-terminal peptides: The following C-terminal peptides of the AChE synaptic (ASP, also denoted SEQ ID: No. 2) and readthrough (ARP, also denoted SEQ ID: No. 1) isoforms were synthesized using a 433A peptide synthesizer (PE Applied Biosystems, Inc., Norwalk, Conn.). • ASP: 1-[…]-40, also denoted as SEQ ID: No. 2. • ARP: 1-[…]-26, also denoted as SEQ ID: No. 1.
[…] Twenty-eight day liquid cultures were sampled every 6–8 days for viable cell counting (using trypan blue dye exclusion), cell phenotyping (CD34^+, CD33^+ and CD41^+ quantification using flow cytometry, with CD34-PE, CD33-FITC (Immunotech/Coulter, Hialeah, Fla.), CD41-FITC (Immunoquality Products, Groningen, Netherlands) and CD45-FITC monoclonal antibodies), and growth of progenitor colony (granulocyte-macrophage and megakaryocytic), using previously described techniques (Pick et al. (1998) id ibid.). […]

[5] = 1.2 μM hydrocortisone (stress-associated level)
[6] = day 14, seeded at 50,000 cells/well, ARP 2 nM, cortisol 1.2 μM, ASP 2 nM, SCF 50 ng/ml, AS1 20 pM, PBAN 2 nM
[7] = 2-week primary cultures of CD34+ cells from 1 to 3 individuals, ± SEM where noted

| Molecule | selective increase in "readthrough" AChE-R mRNA transcript ([1]; 0.60 μM hydrocortisone, above level at 0.10 μM, CD34+ cells) | labeling of all 3 AChEmRNA transcripts [1, 5] | CD33^+ (early myeloids) (CD34^+ cells [2]; [6]) | CD33^+ and CD15^+ (total myeloids) (CD34^+ cells [2]; [6]) | CD34^+ (early progenitors) (CD34^+ cells [2]; [6]) | CD41^+ (megakaryocytes) (CD34^+ cells [2]; [6]) | Total viable cells (CD34^+ cells [3]) | enzyme activity of CD34+ cells (AChE; 0.60 μM hydrocortisone) | catalytic activity of the stem cell-associated enzyme (AChE; [5]) | BrdU incorporation into CD34+ cells (CD34^+ cells [4]) | MK (CD41^+) fold expansion (CD34^+ cells [2]; [7]) | Myeloid (CD33^+) fold expansion (CD34^+ cells [2]; [7]) |
| --- | --- | --- | --- | --- | --- | --- | --- | --- | --- | --- | --- | --- |
| C[C@]12CCC(=O)C=C1CC[C@@H]1[C@@H]2[C@@H](O)C[C@@]2(C)[C@H]1CC[C@]2(O)C(=O)COC(=O)CCC(=O)[O-].[Na+] [hydrocortisone, Hydrocortisone sodium succinate, reference compound] | 40% | enhanced | 45.0 cells per culture × 10^−3 | 73.0 cells per culture × 10^−3 | 13.0 cells per culture × 10^−3 | 10.1^b cells per culture × 10^−3 | 80.0 cells per culture × 10^−3 | no change | intensified | – | – | – |
| GM-CSF | – | – | – | – | – | – | – | – | – | increased | 14.50 fold | 1.35 fold |

Reference: US7067486B2, “Acetylcholinesterase-derived peptides and uses thereof” (priority 1999, dated 2006)
